Consider 26 substances from PMC5458078, “Global mapping of CARM1 substrates defines enzyme specificity and substrate recognition” (Nature Communications, 2017).

One assay concerns MCF7 cells. Briefly: Quantitative nanoLC-MS/MS (TMT) of ADMA-containing peptides, CARM1 KO vs parental. It counts as cell-based, human. Also noted: Fold change KO/WT: scale not given here.
Another assay deals with MCF7 CARM1 KO cells. As to the kind of experiment: Quantitative MS of ADMA-containing peptides in MCF7 CARM1 KO cells expressing CARM1 28-608 or CARM1 140-608, and in CARM1 KO. It counts as cell-based, human.
[1] abbreviates: ADMA-containing peptide, MCF7, CARM1 knockout (KO1-3) vs wild type (WT1-3), TMT 6-plex experiment #1.
Setting [2] is: log2 scale ratio, mean of n = 3.
[3] abbreviates: MCF7, CARM1 knockout vs wild type, n = 3 each.
Setting [4] is: ratio on log2 scale, mean of 3 replicates.
Setting [5] is: MCF7, CARM1 KO (KO1-KO3) vs wild type (WT1-WT3).
Setting [6] is: CARM1 140-608 vs WT, mean of 3 replicates (log2 scale).
Setting [7] is: KO vs WT, mean of 3 replicates (log2 scale).
Where [8] appears, read: MCF7, CARM1 KO vs WT, three biological replicates each.
[9] abbreviates: CARM1 140-608 vs WT, mean of 3 replicates, log2.
[10] abbreviates: KO vs WT, mean of 3 replicates, log2.
[11] abbreviates: MCF7 CARM1 knockout vs wild type, 3 biological replicates each, values are on log2 scale.
Setting [12] is: mean, CARM1 140-608 versus WT (log2 scale).
Where [13] appears, read: mean, CARM1 KO versus WT (log2 scale).
Where [14] appears, read: ADMA-containing peptide, CARM1 knockout (KO) vs wild type (WT) MCF7 cells, 6-plex TMT experiment #1, three biological replicates each, sheet "MCF7".
Where [15] appears, read: CARM1 140-608 versus WT, mean of three replicates (log2).
Where [16] appears, read: KO versus WT, mean of three replicates (log2).

As to FGDMSYSIrHSISMPAMR, in the assay with MCF7 cells (setting [1]), the “Fold change KO/WT” value is -3.258. In the assay on MCF7 CARM1 KO cells (setting [2]), the “CARM1 140-608/WT” value is -2.806 and the KO/WT is -3.258.

For the substance FGGPVHHQAQrFR, the “Fold change KO/WT” value in the assay on MCF7 cells (setting [3]) is recorded as -0.6051. Moreover, in the assay on MCF7 CARM1 KO cells (setting [4]), the “CARM1 140-608/WT” value is -0.8111 and the KO/WT is recorded as -0.6051.

For the substance FIQPrPTLNQPPPPLIRPANSMPPR, in the assay on MCF7 cells (setting [5]), the “Fold change KO/WT” value is -1.409. Further, the “CARM1 140-608/WT” value with MCF7 CARM1 KO cells (setting [6]) worked out at 0.5669. Besides, the KO/WT in the assay on MCF7 CARM1 KO cells (setting [7]) is on record as -1.409.

On to FIQPrPTLNQPPPPLIrPANSMPPR, for which the “Fold change KO/WT” value in the assay with MCF7 cells (setting [5]) is -1.957. Besides, in the assay with MCF7 CARM1 KO cells (setting [6]), the “CARM1 140-608/WT” value is given as 0.9302. In the assay with MCF7 CARM1 KO cells (setting [7]), the KO/WT was -1.231.

As for FLQPrLAPNQPPPPLIrPALAAPR, the “Fold change KO/WT” value with MCF7 cells (setting [5]) was -3.157. For the same substance, the “CARM1 140-608/WT” value in the assay on MCF7 CARM1 KO cells (setting [6]) is on record as 0.3049. The substance further displayed a KO/WT in the assay with MCF7 CARM1 KO cells (setting [7]) of -2.801.

In the case of FPAGArYAGAGGLER, the “Fold change KO/WT” value in the assay on MCF7 cells (setting [8]) was -0.6954. Further, the “CARM1 140-608/WT” value with MCF7 CARM1 KO cells (setting [9]) was -0.8137. Also, the KO/WT in the assay with MCF7 CARM1 KO cells (setting [10]) is -1.235.

On to FSPNPPQQGAVrPQTLNFSSR, for which the “Fold change KO/WT” value in the assay on MCF7 cells (setting [8]) is listed as -3.724. Also, in the assay with MCF7 CARM1 KO cells (setting [4]), the “CARM1 140-608/WT” value is recorded as 1.2079 and the KO/WT is reported as -1.542.

In the case of FrHNIAYFPQIVSVAAR, the “Fold change KO/WT” value in the assay on MCF7 cells (setting [11]) was -0.6457. In the assay with MCF7 CARM1 KO cells (setting [12]), the “CARM1 140-608/WT” value was -0.3364. For the same substance, the KO/WT in the assay with MCF7 CARM1 KO cells (setting [13]) was -0.6457.

FrLSLFSDLPEDTELQR: the “Fold change KO/WT” value in the assay with MCF7 cells (setting [5]) was -2.692. In addition, in the assay with MCF7 CARM1 KO cells (setting [6]), the “CARM1 140-608/WT” value is on record as -2.025. In the assay on MCF7 CARM1 KO cells (setting [7]), this substance gave a KO/WT of -2.692.

Consider FrPNPLNNPR, for which, in the assay on MCF7 cells (setting [1]), the “Fold change KO/WT” value is given as 0.07251. Besides, in the assay on MCF7 CARM1 KO cells (setting [2]), the “CARM1 140-608/WT” value is listed as 0.04278 and the KO/WT is 0.4697.

Turning to “GAAGAVTQSLSrTPTATTSGIrATLTPTVLAPrLPQPPQNPTNIQNFQLPPGMVLVR”, in the assay with MCF7 cells (setting [1]), the “Fold change KO/WT” value is -4.565. In the assay with MCF7 CARM1 KO cells (setting [2]), the “CARM1 140-608/WT” value was -3.099 and the KO/WT is given as -4.565.

For the substance GALSISAPLGDFrHTLHVGR, in the assay with MCF7 cells (setting [8]), the “Fold change KO/WT” value was -1.149. Further, in the assay with MCF7 CARM1 KO cells (setting [4]), the “CARM1 140-608/WT” value is given as -1.004 and the KO/WT was -1.149.

With GAPHFrFIIAGR, the “Fold change KO/WT” value in the assay with MCF7 cells (setting [1]) was -0.1995. For the same substance, in the assay on MCF7 CARM1 KO cells (setting [2]), the “CARM1 140-608/WT” value is on record as -0.6361 and the KO/WT is listed as -0.5643.

For the substance GASQAGMTGYGMPrQIL, the “Fold change KO/WT” value with MCF7 cells (setting [1]) was -2.889. In the assay with MCF7 CARM1 KO cells (setting [2]), the “CARM1 140-608/WT” value is -2.236 and the KO/WT is on record as -2.889.

As for GArGLMNGYR, the “Fold change KO/WT” value in the assay on MCF7 cells (setting [8]) is on record as 0.02481. The “CARM1 140-608/WT” value with MCF7 CARM1 KO cells (setting [9]) is listed as 0.7786. The KO/WT with MCF7 CARM1 KO cells (setting [10]) is 0.02481.

For the substance GArLPGPVSSAR, the “Fold change KO/WT” value in the assay with MCF7 cells (setting [8]) is on record as -2.095. For the same substance, the “CARM1 140-608/WT” value with MCF7 CARM1 KO cells (setting [9]) is -1.788. The same substance yielded a KO/WT in the assay with MCF7 CARM1 KO cells (setting [10]) of -2.095.

As for GFYPQYGALETrGGFNPR, in the assay on MCF7 cells (setting [11]), the “Fold change KO/WT” value is recorded as -0.3326. Also, the “CARM1 140-608/WT” value in the assay on MCF7 CARM1 KO cells (setting [12]) was -0.6578. In the assay with MCF7 CARM1 KO cells (setting [13]), this substance gave a KO/WT of -0.432.

For the substance GGAPFQFGGQrRPLLSQLK, the “Fold change KO/WT” value with MCF7 cells (setting [3]) is on record as -0.3698. Besides, in the assay with MCF7 CARM1 KO cells (setting [4]), the “CARM1 140-608/WT” value was determined as 0.1701 and the KO/WT is 0.08114.

In the case of “GGGSGNFMGrGGNFGGGGGNFGrGGNFGGrGGYGGGGGGSR”, in the assay on MCF7 cells (setting [3]), the “Fold change KO/WT” value is on record as -0.1359. In addition, in the assay on MCF7 CARM1 KO cells (setting [12]), the “CARM1 140-608/WT” value is -0.1884. For the same substance, the KO/WT with MCF7 CARM1 KO cells (setting [13]) is recorded as -0.008363.

With GGrGPFPLQVVSVGGPAR, the “Fold change KO/WT” value with MCF7 cells (setting [3]) is on record as -0.2975. Moreover, in the assay with MCF7 CARM1 KO cells (setting [4]), the “CARM1 140-608/WT” value is recorded as -0.1124 and the KO/WT was -0.2975.

Consider GGrGrGGSGGGGGGGGGGYNR, for which the “Fold change KO/WT” value with MCF7 cells (setting [3]) is on record as -0.05268. Besides, in the assay with MCF7 CARM1 KO cells (setting [12]), the “CARM1 140-608/WT” value is listed as 0.1837. In addition, the KO/WT in the assay with MCF7 CARM1 KO cells (setting [13]) is 0.3356.

Regarding GGrGrGSLNHMVVDHRPK, in the assay on MCF7 cells (setting [5]), the “Fold change KO/WT” value is reported as 0.3337. Besides, the “CARM1 140-608/WT” value in the assay with MCF7 CARM1 KO cells (setting [6]) is 0.3773. Further, the KO/WT with MCF7 CARM1 KO cells (setting [7]) worked out at 0.3337.

As to GILPMNPrNMMNHSQVGQGIGIPSR, the “Fold change KO/WT” value in the assay on MCF7 cells (setting [3]) is -1.864. Further, in the assay with MCF7 CARM1 KO cells (setting [4]), the “CARM1 140-608/WT” value is -1.1659 and the KO/WT is recorded as -1.864.

With “GIPLDAAAAYYLPrHLAPNPTYPHLYPPYLIrGYPDTAALENR”, the “Fold change KO/WT” value with MCF7 cells (setting [14]) is reported as -1.386. In addition, the “CARM1 140-608/WT” value in the assay with MCF7 CARM1 KO cells (setting [15]) is given as -0.9413. The KO/WT in the assay with MCF7 CARM1 KO cells (setting [16]) is -1.386.

On to GLGPGGTPFPGQGPPQrPrFYPVSEDPHR, for which, in the assay with MCF7 cells (setting [11]), the “Fold change KO/WT” value is recorded as -1.165. For the same substance, the “CARM1 140-608/WT” value in the assay on MCF7 CARM1 KO cells (difference of log2 means, CARM1 140-608 vs WT) is -1.244. The same substance gave a KO/WT in the assay with MCF7 CARM1 KO cells (difference of log2 means, KO vs WT) of -1.165.

Turning to GLPTTTQrVGVPTAVQNLAPrAAVAAAAPrAVAPYK, the “Fold change KO/WT” value in the assay with MCF7 cells (setting [14]) is given as -2.96. In the assay with MCF7 CARM1 KO cells (setting [15]), the “CARM1 140-608/WT” value is listed as -1.934. The same substance displayed a KO/WT with MCF7 CARM1 KO cells (setting [16]) of -2.638.
